Assays:
[1] = system: A549-ACE2 infected with SARS-CoV-2; experiment: morphology score (similarity to uninfected cells); higher = more like uninfected cells; conditions: 24 h
Calu-3 [2] = experiment: relative viability EC50 (midpoint between 100% and the lowest measured viability); higher = less toxic; conditions: 72 h
Caco-2 [3] = experiment: as above; conditions: 72 h
Vero E6 [4] = experiment: as above; conditions: 72 h
[5] = system: A549-ACE2 infected with SARS-CoV-2; experiment: SARS-CoV-2 infection rate relative to DMSO; higher = more infection; conditions: 24 h
Calu-3 [6] = experiment: cell viability relative to DMSO; higher = less toxic; conditions: 72 h
Caco-2 [7] = experiment: as above; conditions: 72 h
U2OS [8] = experiment: as above; conditions: 72 h
Vero E6 [9] = experiment: as above; conditions: 72 h
HepG2 [10] = experiment: as above; conditions: 72 h
Calu-3 [11] = experiment: drug sensitivity score (DSS) for viability; higher = more toxic; extreme values may be limits of the assay; conditions: 72 h
Caco-2 [12] = experiment: as above; conditions: 72 h
U2OS [13] = experiment: as above; conditions: 72 h
Vero E6 [14] = experiment: as above; conditions: 72 h
HepG2 [15] = experiment: as above; conditions: 72 h
[16] = system: A549-ACE2 infected with SARS-CoV-2; experiment: cell count relative to DMSO; higher = less toxic; conditions: 24 h
A549-ACE2 [17] = experiment: drug-induced phospholipidosis relative to tamoxifen; higher = more phospholipidosis
A549-ACE2 [18] = experiment: phospholipidosis EC50; higher = less potent phospholipidosis inducer
U2OS [19] = experiment: relative viability EC50 (midpoint between 100% and the lowest measured viability); higher = less toxic; conditions: 72 h
HepG2 [20] = experiment: as above; conditions: 72 h

COc1cc2ncnc(Nc3cccc(Br)c3)c2cc1OC
Conditions	SARS-CoV-2 infection rate, [5] [%]	cell count, [16] [%]	cell viability, Caco-2 [7] [%]	cell viability, Calu-3 [6] [%]	cell viability, HepG2 [10] [%]	cell viability, U2OS [8] [%]	cell viability, Vero E6 [9] [%]	morphology score, [1]
1 nM	–	–	88.5	102	103	93.7	101	–
10 nM	–	–	109	84.4	86.4	98.4	84.6	–
100 nM	–	–	95.1	96.5	92.6	97.6	102	–
0.3 µM	107	87	–	–	–	–	–	-0.21
1000 nM	–	–	69.6	40.4	92.1	93.2	79.7	–
3 µM	86	105	–	–	–	–	–	0.38
10 µM	33	92	–	–	–	–	–	0.64
10000 nM	–	–	47.2	23.6	71.6	72.9	49.6	–
30 µM	64	29	–	–	–	–	–	-0.06

Conditions	drug sensitivity score	relative viability EC50 [µM]
Caco-2 [3]	–	0.774
Caco-2 [12]	6.4	–
Calu-3 [2]	–	0.497
Calu-3 [11]	11.7	–
HepG2 [15]	2.1	–
U2OS [13]	2.1	–
Vero E6 [4]	–	1.17
Vero E6 [14]	5.4	–

drug-induced phospholipidosis [%], A549-ACE2 [17]
Conditions	0.3 µM	0.833333 µM	3.33333 µM	6.66667 µM	10 µM	30 µM
24 h	1.6	-1.36	0.82	3.17	1.18	9.67
48 h	-2.83	-1.17	-1.23	-4.71	-0.44	–
72 h	2.41	-2.62	-2.62	-1.43	0.652	–

O=C(NCCCN1CCC2(CC1)OCc1ccccc12)[C@H]1CCCN1Cc1ccccc1 [BAN-ORL-24]
Conditions	SARS-CoV-2 infection rate [%]	cell count [%]	cell viability [%]	morphology score	phospholipidosis EC50 [µM]
A549-ACE2 [18], 24 h	–	–	–	–	9.61
A549-ACE2 [18], 48 h	–	–	–	–	9.12
A549-ACE2 [18], 72 h	–	–	–	–	15
Caco-2 [7], 1 nM	–	–	98.3	–	–
Caco-2 [7], 10 nM	–	–	103	–	–
Caco-2 [7], 100 nM	–	–	101	–	–
Caco-2 [7], 1000 nM	–	–	105	–	–
Caco-2 [7], 10000 nM	–	–	92.1	–	–
Calu-3 [6], 1 nM	–	–	104	–	–
Calu-3 [6], 10 nM	–	–	108	–	–
Calu-3 [6], 100 nM	–	–	114	–	–
Calu-3 [6], 1000 nM	–	–	105	–	–
Calu-3 [6], 10000 nM	–	–	87.1	–	–
HepG2 [10], 1 nM	–	–	97.5	–	–
HepG2 [10], 10 nM	–	–	109	–	–
HepG2 [10], 100 nM	–	–	103	–	–
HepG2 [10], 1000 nM	–	–	98.7	–	–
HepG2 [10], 10000 nM	–	–	89.2	–	–
U2OS [8], 1 nM	–	–	105	–	–
U2OS [8], 10 nM	–	–	105	–	–
U2OS [8], 100 nM	–	–	104	–	–
U2OS [8], 1000 nM	–	–	104	–	–
U2OS [8], 10000 nM	–	–	99.2	–	–
Vero E6 [9], 1 nM	–	–	94.8	–	–
Vero E6 [9], 10 nM	–	–	95.8	–	–
Vero E6 [9], 100 nM	–	–	91.6	–	–
Vero E6 [9], 1000 nM	–	–	93.2	–	–
Vero E6 [9], 10000 nM	–	–	99.5	–	–
[1], 0.3 µM	–	–	–	-0.05	–
[1], 3 µM	–	–	–	0.69	–
[1], 10 µM	–	–	–	0.81	–
[1], 30 µM	–	–	–	0.69	–
[5], 0.3 µM	98	–	–	–	–
[5], 3 µM	59	–	–	–	–
[5], 10 µM	33	–	–	–	–
[5], 30 µM	18	–	–	–	–
[16], 0.3 µM	–	98	–	–	–
[16], 3 µM	–	117	–	–	–
[16], 10 µM	–	117	–	–	–
[16], 30 µM	–	123	–	–	–

Conditions	drug sensitivity score	relative viability EC50 [µM]
Caco-2 [3]	–	> 10
Caco-2 [12]	0	–
Calu-3 [2]	–	> 10
Calu-3 [11]	0	–
HepG2 [15]	0	–
HepG2 [20]	–	> 10
U2OS [13]	0	–
U2OS [19]	–	> 10
Vero E6 [4]	–	> 10
Vero E6 [14]	0	–

drug-induced phospholipidosis [%], A549-ACE2 [17]
Conditions	0.3 µM	0.833333 µM	3.33333 µM	6.66667 µM	10 µM	30 µM
24 h	0.49	5.2	25.6	45.9	72.6	109
48 h	2.06	7.81	23.6	36.2	59.3	110
72 h	5.31	9.96	24.4	35	56.6	125

CC1=C(C(=O)OC2CCCCC2)C(c2ccc([N+](=O)[O-])cc2)C2=C(CC(C)(C)CC2=O)N1 (configuration not stated) [FLI-06]
Conditions	SARS-CoV-2 infection rate, [5] [%]	cell count, [16] [%]	cell viability, Caco-2 [7] [%]	cell viability, Calu-3 [6] [%]	cell viability, HepG2 [10] [%]	cell viability, U2OS [8] [%]	cell viability, Vero E6 [9] [%]	morphology score, [1]
1 nM	–	–	102	104	98.5	101	94.2	–
10 nM	–	–	101	106	102	100	92.2	–
0.1 µM	111	99	–	–	–	–	–	-0.06
100 nM	–	–	100	92.3	101	98.7	96.6	–
0.3 µM	100	104	–	–	–	–	–	-0.11
1 µM	101	99	–	–	–	–	–	0.02
1000 nM	–	–	98	106	108	100	103	–
3 µM	51	101	–	–	–	–	–	0.52
10000 nM	–	–	19.1	21.8	38.8	9.6	14.2	–

Conditions	drug sensitivity score	relative viability EC50 [µM]
Caco-2 [3]	–	2.99
Caco-2 [12]	4.7	–
Calu-3 [2]	–	3.53
Calu-3 [11]	3.9	–
HepG2 [15]	2.8	–
HepG2 [20]	–	3.72
U2OS [13]	5.1	–
U2OS [19]	–	3.16
Vero E6 [4]	–	3.36
Vero E6 [14]	4.5	–

drug-induced phospholipidosis [%], A549-ACE2 [17]
Conditions	0.3 µM	0.833333 µM	3.33333 µM	6.66667 µM	10 µM	30 µM
24 h	-0.85	2.59	9.31	10.3	4.47	3.32
48 h	3.76	2.95	-2.25	-3.67	–	–
72 h	4.47	2.39	-2.58	–	–	–

C=C1CC[C@@H]2[C@](C)(CO)[C@H](O)CC[C@@]2(C)[C@@H]1C/C=C1/C(=O)OC[C@H]1O [andrographolide]
Conditions	SARS-CoV-2 infection rate, [5] [%]	cell count, [16] [%]	cell viability, Caco-2 [7] [%]	cell viability, Calu-3 [6] [%]	cell viability, HepG2 [10] [%]	cell viability, U2OS [8] [%]	cell viability, Vero E6 [9] [%]	morphology score, [1]
1 nM	–	–	99.1	90.5	102	103	100	–
10 nM	–	–	104	94.3	99.2	95.7	104	–
0.1 µM	103	101	–	–	–	–	–	-0.02
100 nM	–	–	101	105	109	102	98	–
0.3 µM	110	101	–	–	–	–	–	-0.22
1 µM	111	96	–	–	–	–	–	-0.15
1000 nM	–	–	94.3	106	102	96.2	112	–
3 µM	102	102	–	–	–	–	–	-0.17
10000 nM	–	–	66	112	66.5	22.9	73.8	–

Conditions	drug sensitivity score	relative viability EC50 [µM]
Caco-2 [12]	2.5	–
Calu-3 [2]	–	> 10
Calu-3 [11]	0	–
HepG2 [15]	1.4	–
U2OS [13]	4.8	–
U2OS [19]	–	2.78
Vero E6 [14]	0.7	–

drug-induced phospholipidosis [%], A549-ACE2 [17]
Conditions	0.3 µM	0.833333 µM	3.33333 µM	6.66667 µM	10 µM	30 µM
24 h	4.15	-1.47	2.19	13.3	16	25
48 h	3.38	2.04	3.48	15.8	19.9	–
72 h	0.729	-0.638	-0.912	5.37	8.38	–

CNCCCCOc1ccccc1Cc1ccccc1 [bifemelane]
Conditions	SARS-CoV-2 infection rate [%]	cell count [%]	cell viability [%]	morphology score	phospholipidosis EC50 [µM]
A549-ACE2 [18], 24 h	–	–	–	–	5.4
A549-ACE2 [18], 48 h	–	–	–	–	5.1
A549-ACE2 [18], 72 h	–	–	–	–	6.67
Caco-2 [7], 1 nM	–	–	100	–	–
Caco-2 [7], 10 nM	–	–	101	–	–
Caco-2 [7], 100 nM	–	–	91.5	–	–
Caco-2 [7], 1000 nM	–	–	102	–	–
Caco-2 [7], 10000 nM	–	–	89.3	–	–
Calu-3 [6], 1 nM	–	–	112	–	–
Calu-3 [6], 10 nM	–	–	104	–	–
Calu-3 [6], 100 nM	–	–	95.8	–	–
Calu-3 [6], 1000 nM	–	–	90.1	–	–
Calu-3 [6], 10000 nM	–	–	104	–	–
HepG2 [10], 1 nM	–	–	98.7	–	–
HepG2 [10], 10 nM	–	–	101	–	–
HepG2 [10], 100 nM	–	–	89.5	–	–
HepG2 [10], 1000 nM	–	–	92.7	–	–
HepG2 [10], 10000 nM	–	–	85	–	–
U2OS [8], 1 nM	–	–	96.6	–	–
U2OS [8], 10 nM	–	–	91.1	–	–
U2OS [8], 100 nM	–	–	102	–	–
U2OS [8], 1000 nM	–	–	96.5	–	–
U2OS [8], 10000 nM	–	–	92.6	–	–
Vero E6 [9], 1 nM	–	–	109	–	–
Vero E6 [9], 10 nM	–	–	102	–	–
Vero E6 [9], 100 nM	–	–	96.8	–	–
Vero E6 [9], 1000 nM	–	–	100	–	–
Vero E6 [9], 10000 nM	–	–	89.5	–	–
[1], 0.3 µM	–	–	–	-0.03	–
[1], 3 µM	–	–	–	0.43	–
[1], 10 µM	–	–	–	0.7	–
[1], 30 µM	–	–	–	0.69	–
[5], 0.3 µM	101	–	–	–	–
[5], 3 µM	96	–	–	–	–
[5], 10 µM	43	–	–	–	–
[5], 30 µM	16	–	–	–	–
[16], 0.3 µM	–	100	–	–	–
[16], 3 µM	–	106	–	–	–
[16], 10 µM	–	115	–	–	–
[16], 30 µM	–	110	–	–	–

Conditions	drug sensitivity score	relative viability EC50 [µM]
Caco-2 [3]	–	> 10
Caco-2 [12]	0	–
Calu-3 [2]	–	> 10
Calu-3 [11]	0	–
HepG2 [15]	0.6	–
HepG2 [20]	–	> 10
U2OS [13]	0	–
U2OS [19]	–	> 10
Vero E6 [4]	–	> 10
Vero E6 [14]	0	–

drug-induced phospholipidosis [%], A549-ACE2 [17]
Conditions	0.3 µM	0.833333 µM	3.33333 µM	6.66667 µM	10 µM	30 µM
24 h	0.28	1.11	22.9	61.8	79.9	96.4
48 h	-0.08	-3.86	22.6	74.8	87.4	108
72 h	3.27	-0.257	16.8	61.6	86.2	116

Source: the supplement of paper PMC13380429
